Experimental data from paper PMC11396129, “Oxindole–benzothiazole hybrids as CDK2 inhibitors and anticancer agents: design, synthesis and biological evaluation” (BMC Chemistry, 2024).

How the values were obtained:
UO-31 = test: NCI 60 panel growth inhibition (SRB), renal cancer; type: cell-based, human; conditions: UO-31, 10 μM
Method: (§1) Screening of cytotoxic activity against a panel of sixty human tumor cell lines The selected compounds by NCI were evaluated for their anticancer activity in a two- stage process. […] Then, the output from the single dose screen is reported as a mean graph. […] Assay protocol. […] For a typical screening experiment, cells are inoculated into 96 well microtiter plates in 100 µL at plating densities ranging from 5000 to 40,000 cells/well depending on the doubling time of individual cell lines. […] After 24 h, two plates of each cell line are fixed in situ with TCA, to represent a measurement of the cell population for each cell line at the time of drug addition (Tz). The experimental drugs are solubilized in dimethyl sulfoxide at 400-fold the desired final maximum test concentration and stored frozen prior to use. At the time of drug addition, an aliquot of frozen concentrate is thawed and diluted to twice the desired final maximum test concentration with complete medium containing 50 µg/mL gentamicin. Additional four, 10-fold or ½ log serial dilutions are made to provide a total of five drug concentrations plus control. […] For adherent cells, the assay is terminated by the addition of cold TCA. […] The supernatant is discarded, and the plates are washed five times with tap water and air dried. […] Using the seven absorbance measurements [time zero, (Tz), control growth, (C), and test growth in the presence of drug at the five concentration levels (Ti)], the percentage growth is calculated at each of the drug concentrations levels. Percentage growth inhibition is calculated as: [(Ti Tz)/(C–Tz)] x 100 for concentrations for which Ti>/=Tz and [(Ti-Tz)/Tz] x 100 for concentrations for which Ti < Tz. Three dose response parameters are calculated for each experimental agent. […] The drug concentration resulting in total growth inhibition (TGI) is calculated from Ti = Tz. […] Values are calculated for each of these three parameters if the level of activity is reached; however, if the effect is not reached or is exceeded, the value for that parameter is expressed as greater or less than the maximum or minimum concentration tested.

786-0 = test: NCI 60 panel growth inhibition (SRB), renal cancer; type: cell-based, human; conditions: 786-0, 10 μM
Method: as §1

A498 = test: NCI 60 panel growth inhibition (SRB), renal cancer; type: cell-based, human; conditions: A498, 10 μM
Method: as §1

ACHN = test: NCI 60 panel growth inhibition (SRB), renal cancer; type: cell-based, human; conditions: 10 μM
Method: as §1

TK-10 = test: NCI 60 panel growth inhibition (SRB), renal cancer; type: cell-based, human; conditions: TK-10, 10 μM
Method: as §1

SN12C = test: NCI 60 panel growth inhibition (SRB), renal cancer; type: cell-based, human; conditions: 10 μM
Method: as §1

RXF 393 = test: NCI 60 panel growth inhibition (SRB), renal cancer; type: cell-based, human; conditions: RXF 393, 10 μM
Method: as §1

CAKI-1 = test: NCI 60 panel growth inhibition (SRB), renal cancer; type: cell-based, human; conditions: CAKI-1, 10 μM
Method: as §1

A549/ATCC = test: NCI 60 panel growth inhibition (SRB), non-small cell lung cancer; type: cell-based, human; conditions: 10 μM
Method: as §1

NCI-H23 = test: as above; type: cell-based, human; conditions: NCI-H23, 10 μM
Method: as §1

HOP-62 = test: as above; type: cell-based, human; conditions: HOP-62, 10 μM
Method: as §1

NCI-H322M = test: as above; type: cell-based, human; conditions: 10 μM
Method: as §1

NCI-H522 = test: as above; type: cell-based, human; conditions: NCI-H522, 10 μM
Method: as §1

NCI-H226 = test: as above; type: cell-based, human; conditions: NCI-H226, 10 μM
Method: as §1

NCI-H460 = test: as above; type: cell-based, human; conditions: NCI-H460, 10 μM
Method: as §1

EKVX = test: as above; type: cell-based, human; conditions: 10 μM
Method: as §1

T-47D = test: NCI 60 panel growth inhibition (SRB), breast cancer; type: cell-based, human; conditions: 10 μM
Method: as §1

MDA-MB-231/ATCC = test: as above; type: cell-based, human; conditions: 10 μM
Method: as §1

MDA-MB-468 = test: as above; type: cell-based, human; conditions: MDA-MB-468, 10 μM
Method: as §1

MCF7 = test: as above; type: cell-based, human; conditions: MCF7, 10 μM
Method: as §1

BT-549 = test: as above; type: cell-based, human; conditions: BT-549, 10 μM
Method: as §1

HS 578T = test: as above; type: cell-based, human; conditions: 10 μM
Method: as §1

SW-620 = test: NCI 60 panel growth inhibition (SRB), colon cancer; type: cell-based, human; conditions: SW-620, 10 μM
Method: as §1

HCT-15 = test: NCI 60 panel growth inhibition (SRB), colon cancer; type: cell-based, human; conditions: HCT-15, 10 μM
Method: as §1

HCC-2998 = test: NCI 60 panel growth inhibition (SRB), colon cancer; type: cell-based, human; conditions: HCC-2998, 10 μM
Method: as §1

KM12 = test: NCI 60 panel growth inhibition (SRB), colon cancer; type: cell-based, human; conditions: KM12, 10 μM
Method: as §1

COLO 205 = test: NCI 60 panel growth inhibition (SRB), colon cancer; type: cell-based, human; conditions: COLO 205, 10 μM
Method: as §1

HCT-116 = test: NCI 60 panel growth inhibition (SRB), colon cancer; type: cell-based, human; conditions: HCT-116, 10 μM
Method: as §1

DU-145 = test: NCI 60 panel growth inhibition (SRB), prostate cancer; type: cell-based, human; conditions: DU-145, 10 μM
Method: as §1

NCI/ADR-RES = test: NCI 60 panel growth inhibition (SRB), ovarian cancer; type: cell-based, human; conditions: 10 μM
Method: as §1

OVCAR-8 = test: as above; type: cell-based, human; conditions: OVCAR-8, 10 μM
Method: as §1

HOP-92 = test: NCI 60 panel growth inhibition (SRB), non-small cell lung cancer; type: cell-based, human; conditions: HOP-92, 10 μM
Method: as §1

[1] = system: NCI 60 cancer cell line panel; test: NCI 60 panel growth inhibition (SRB), whole panel; type: cell-based, human; conditions: mean over NCI 60 panel, 10 μM
Method: as §1

PC-3 = test: NCI 60 panel growth inhibition (SRB), prostate cancer; type: cell-based, human; conditions: PC-3, 10 μM
Method: as §1

Compound	GI% (UO-31)	GI% (A498)	GI% (ACHN)	GI% (TK-10)	GI% (SN12C)	GI% (RXF 393)	GI% (CAKI-1)	GI% (A549/ATCC)	GI% (NCI-H23)	GI% (NCI-H322M)	GI% (NCI-H522)	GI% (NCI-H226)	GI% (NCI-H460)	GI% (EKVX)	GI% (MDA-MB-231/ATCC)	GI% (MDA-MB-468)	GI% (MCF7)	GI% (BT-549)	GI% (HS 578T)	melting point	further results
O=C(COc1ccccc1-c1nc2ccccc2s1)NN=C1C(=O)Nc2ccc(Cl)cc21 [Compound 9e, 2-(2-(Benzo[d]thiazol-2-yl)phenoxy)-N′-(5-chloro-2-oxoindolin-3-ylidene)acetohydrazide]	– (GI% < 5%)	– (GI% < 5%)	18.45%	– (GI% < 5%)	8.28%	– (GI% < 5%)	6.21%	– (GI% < 5%)	7.05%	– (GI% < 5%)	11.15%	11.52%	– (GI% < 5%)	53.99%	15.59%	5.76%	15.86%	– (GI% < 5%)	– (GI% < 5%)	265 to 267 °C	GI% (786-0): – (GI% < 5%); GI% (HOP-62): – (GI% < 5%); GI% (T-47D): – (GI% < 5%); GI% (SW-620): – (GI% < 5%); GI% (HCT-15): – (GI% < 5%); GI% (HCC-2998): – (GI% < 5%); GI% (KM12): – (GI% < 5%); GI% (COLO 205): – (GI% < 5%); GI% (HCT-116): – (GI% < 5%); GI% (DU-145): – (GI% < 5%); GI% (NCI/ADR-RES): 6.89%; GI% (OVCAR-8): – (GI% < 5%)
COc1ccc(-c2nc3ccccc3s2)cc1OCC(=O)NN=C1C(=O)Nc2ccccc21 [Compound 9m, 2-(5-(Benzo[d]thiazol-2-yl)-2-methoxyphenoxy)-N′-(2-oxoindolin-3-ylidene) acetohydrazide]	– (GI% < 5%)	– (GI% < 5%)	19.82%	10.32%	7.15%	– (GI% < 5%)	9.28%	– (GI% < 5%)	14.06%	– (GI% < 5%)	7.23%	– (GI% < 5%)	17.38%	– (GI% < 5%)	9.78%	8.24%	33.97%	– (GI% < 5%)	– (GI% < 5%)	192 to 194 °C	GI% (HOP-92): – (GI% < 5%); Mean GI% [1]: 6.03%; GI% (SW-620): 29.93%; GI% (HCT-15): 10.77%; GI% (HCC-2998): – (GI% < 5%); GI% (KM12): – (GI% < 5%); GI% (HCT-116): 41.54%; GI% (PC-3): 7.63%; GI% (DU-145): 5.42%; GI% (NCI/ADR-RES): 28.96%; GI% (OVCAR-8): 20.84%
COc1ccc(-c2nc3ccccc3s2)cc1OCC(=O)NN=C1C(=O)Nc2ccc([N+](=O)[O-])cc21 [Compound 9p, 2-(5-(Benzo[d]thiazol-2-yl)-2-methoxyphenoxy)-N′-(5-nitro-2-oxoindolin-3-ylidene)acetohydrazide]	19.08%	20.06%	76.97%	96.63%	37.68%	99.84%	45.22%	7.06%	47.90%	6.14%	42.45%	67.22%	– (GI% < 5%)	9.22%	49.20%	17.86%	17.21%	54.51%	96.22%	288 to 290 °C	GI% (786-0): 87.35%; GI% (HOP-92): 99.07%; Mean GI% [1]: 30.34%; GI% (SW-620): – (GI% < 5%); GI% (HCT-15): – (GI% < 5%); GI% (HCC-2998): – (GI% < 5%); GI% (KM12): – (GI% < 5%); GI% (HCT-116): 47.25%; GI% (PC-3): 11.94%; GI% (DU-145): – (GI% < 5%); GI% (NCI/ADR-RES): 19.93%; GI% (OVCAR-8): 38.18%
COc1ccc(-c2nc3ccccc3s2)cc1OCC(=O)NN=C1C(=O)Nc2ccc(Cl)cc21 [Compound 9q, 2-(5-(Benzo[d]thiazol-2-yl)-2-methoxyphenoxy)-N′-(5-chloro-2-oxoindolin-3-ylidene)acetohydrazide]	20.65%	– (GI% < 5%)	59.32%	62.99%	36.67%	32.76%	50.03%	20.18%	42.70%	– (GI% < 5%)	21.77%	24.77%	44.39%	25.37%	59.98%	– (GI% < 5%)	57.82%	23.63%	74.27%	260 to 262 °C	GI% (786-0): 44.24%; GI% (HOP-92): 52.70%; Mean GI% [1]: 31.16%; GI% (SW-620): 51.82%; GI% (HCT-15): 36.40%; GI% (HCC-2998): – (GI% < 5%); GI% (KM12): 17.57%; GI% (HCT-116): 72.84%; GI% (PC-3): 26.21%; GI% (DU-145): 19.41%; GI% (NCI/ADR-RES): 47.55%; GI% (OVCAR-8): 59.73%
COc1ccc(-c2nc3ccccc3s2)cc1OCC(=O)NN=C1C(=O)Nc2ccc(Br)cc21 [Compound 9r, 2-(5-(Benzo[d]thiazol-2-yl)-2-methoxyphenoxy)-N′-(5-bromo-2-oxoindolin-3-ylidene)acetohydrazide]	15.64%	– (GI% < 5%)	30.78%	36.32%	20.61%	15.08%	29.61%	7.78%	20.81%	– (GI% < 5%)	8.27%	10.50%	– (GI% < 5%)	7.18%	42.55%	– (GI% < 5%)	35.42%	21.16%	46.81%	271 to 273 °C	GI% (786-0): 20.37%; GI% (HOP-92): 32.33%; Mean GI% [1]: 10.08%; GI% (SW-620): 7.61%; GI% (HCT-15): – (GI% < 5%); GI% (HCC-2998): – (GI% < 5%); GI% (KM12): – (GI% < 5%); GI% (HCT-116): 30.23%; GI% (PC-3): 16.13%; GI% (DU-145): – (GI% < 5%); GI% (NCI/ADR-RES): 27.04%; GI% (OVCAR-8): 38.56%
